Measured values as given in ChEMBL document CHEMBL2028040, “Malaria Box”.

How the values were obtained:
Plasmodium falciparum [1] = assay: MMV: Inhibition of Plasmodium falciparum 3D7 (EC50).; assay type: functional, organism-based
[2] = tested on: Trypanosoma brucei brucei; assay: MMV: Inhibition of Trypanosoma brucei brucei (Squib 427) (HAT in vitro).; assay type: functional, organism-based
[3] = MMV: Cytotoxicity against human fibroblasts (MRC-5) cells.; conditions: MRC-5 cells (human fibroblasts)
[4] = tested on: Trypanosoma brucei rhodesiense; assay: MMV: Inhibition of Trypanosoma brucei rhodesiense (STIB 900) (HAT in vitro).; assay type: functional, organism-based
Trypanosoma cruzi = assay: MMV: Inhibition of Trypanosoma cruzi (Tulahuen C4 LacZ) (Chagas in vitro).; assay type: functional, organism-based
Leishmania infantum = assay: MMV: Inhibition of Leishmania infantum (MHOM/MA/BE/67) in vitro.; assay type: functional, organism-based
Plasmodium falciparum [5] = assay: MMV: Inhibition of Plasmodium falciparum K1 (EC50).; assay type: functional, organism-based
Plasmodium falciparum [6] = assay: MMV: Inhibition of Plasmodium falciparum 3D7 at 5uM compound concentration.; assay type: functional

Compound | EC50 (Plasmodium falciparum [1]) | IC50 [2] | IC50 [3] | IC50 [4] | IC50 (Trypanosoma cruzi) | IC50 (Leishmania infantum) | EC50 (Plasmodium falciparum [5]) | inhibition at 5 µM (Plasmodium falciparum [6])
CN1CCN(c2ccc(Nc3c4ccccc4nc4ccccc34)cc2)CC1 | 142 nM | 1030 nM | 10900 nM | 311 nM | 1000 nM | 4060 nM | 487 nM | 97%
Cc1cc(NCCN2CCCCC2)c2ccc3ccccc3c2n1 | 300 nM | 970 nM | 16100 nM | 1000 nM | 3270 nM | 841 nM | 569 nM | 99%
CCc1c(C)c(=N)c2ccccc2n1C | 378 nM | > 32000 nM | 6890 nM | > 32000 nM | 3060 nM | > 32000 nM | 994 nM | 76%
Oc1ccc(-c2nc(-c3ccc4oc5ccc(-c6[nH]c(-c7ccc(O)cc7)nc6-c6ccccc6)cc5c4c3)c(-c3ccccc3)[nH]2)cc1 | 326 nM | 3380 nM | 15200 nM | 2750 nM | 4910 nM | 4000 nM | 285 nM | 98%
CN(C)c1ccc(C=Cc2nc(=O)c3ccccc3o2)cc1 | 51.5 nM | > 32000 nM | > 32000 nM | 3060 nM | > 32000 nM | > 32000 nM | 27.2 nM | 96%
Cc1ccnc(NC(c2cccc(OCc3ccccc3)c2)c2ccc3cccnc3c2O)c1 (stereo unspecified) | 1020 nM | 1200 nM | 2000 nM | 1000 nM | 1050 nM | 4060 nM | 1020 nM | 97%
CCCN(CCC)CC(O)COc1ccccc1C(=O)Nc1ccccc1 (stereo unspecified) | 196 nM | > 32000 nM | > 32000 nM | > 32000 nM | > 32000 nM | > 32000 nM | 58.1 nM | 98%
COc1ccc(NC(=O)C2c3ccccc3C(=O)N(CC(C)C)C2c2cccs2)cc1Cl (stereo unspecified) | 20.2 nM | > 32000 nM | > 32000 nM | > 32000 nM | > 32000 nM | > 32000 nM | 50.8 nM | 100%
Cc1cc(C)c2c(c1)OCN(Cc1ccccc1Cl)C2 | 268 nM | 16600 nM | > 32000 nM | 16200 nM | > 32000 nM | 16200 nM | 101 nM | 98%
COc1cc(OC)c(N(C)C(=O)c2cc3c(s2)-c2ccccc2S(=O)(=O)C3)cc1Cl | 78.2 nM | 16200 nM | > 32000 nM | 4360 nM | 15700 nM | 21500 nM | 93.6 nM | 100%
c1ccc2c(NCCc3c[nH]c4ccccc34)c3ccccc3nc2c1 | 304 nM | 1040 nM | 3970 nM | 850 nM | 1890 nM | 1190 nM | 668 nM | 97%
CCOC(=O)c1cnc2c(C)cccc2c1Nc1ccc(C(C)=O)cc1 | 314 nM | > 32000 nM | > 32000 nM | > 32000 nM | > 32000 nM | > 32000 nM | 712 nM | 94%
Cc1cc(NC(=O)C2c3ccccc3C(=O)N(CC(C)C)C2c2cccs2)no1 (stereo unspecified) | 32.8 nM | > 32000 nM | 30100 nM | 9830 nM | 15100 nM | > 32000 nM | 39.1 nM | 100%
Cc1ccc(C2CC(C(F)(F)F)n3nc(C(=O)N4CCN(C(c5ccccc5)c5ccccc5)CC4)cc3N2)cc1 (stereo unspecified) | 454 nM | 16500 nM | > 32000 nM | 4110 nM | 16600 nM | 16200 nM | 1610 nM | 98%
CC(C)c1ccc(CNCC(O)c2ccccc2)cc1 (stereo unspecified) | 1260 nM | 1000 nM | 13000 nM | 1010 nM | 10600 nM | 10200 nM | 456 nM | 96%
OC(CNC1CCCC1)Cn1c2ccccc2c2ccccc21 (stereo unspecified) | 660 nM | 1020 nM | 18800 nM | 1010 nM | 14000 nM | 5380 nM | 239 nM | 97%
CCc1ccc(Nc2cc(C)c3ccc(O)cc3n2)cc1 | 194 nM | 12200 nM | 7770 nM | 11900 nM | 3720 nM | 4320 nM | 16.1 nM | 98%
CC(C)OCc1cc(CN2CCN(c3cccc(Cl)c3)CC2)c(O)c2ncccc12 | 697 nM | 1000 nM | 1170 nM | 352 nM | 234 nM | 1190 nM | 1140 nM | 98%
COc1ccc(-c2cc(=O)oc3c4c(ccc23)OCN(Cc2ccc(F)cc2)C4)cc1 | 735 nM | 15800 nM | > 32000 nM | 11000 nM | 13200 nM | 5380 nM | 294 nM | 96%
CSc1ccccc1C(=O)Nc1nc(-c2ccccn2)cs1 | 206 nM | 931 nM | 2780 nM | 272 nM | 250 nM | 336 nM | 562 nM | 98%
CCCOCc1cc(CN2CCN(c3cccc(Cl)c3)CC2)c(O)c2ncccc12 | 407 nM | 1020 nM | 1670 nM | 972 nM | 954 nM | 1590 nM | 362 nM | 97%
CCCCC(O)(c1ccc(Cl)cc1)C(CN1CCOCC1)c1ccc(Cl)cc1 (stereo unspecified) | 1380 nM | 3910 nM | > 32000 nM | 4320 nM | 14300 nM | 10200 nM | 1530 nM | 98%
CCOC(=O)c1ccc2nc(-c3ccccc3)cc(O)c2c1 | 118 nM | > 32000 nM | 7580 nM | > 32000 nM | 1530 nM | 16200 nM | 600 nM | 96%
OC(CNCc1ccccc1)Cn1c2ccccc2c2ccccc21 (stereo unspecified) | 1080 nM | 851 nM | 16100 nM | 252 nM | 4320 nM | 4000 nM | 860 nM | 95%
COc1ccc(C2Sc3ccccc3N=C3C2=C(O)c2ccccc23)cc1 (stereo unspecified) | 845 nM | 4000 nM | > 32000 nM | 3540 nM | 4510 nM | 4760 nM | 1930 nM | 96%
CC1CCCCN1CCCNC(=O)c1ccc2c(c1)sc1nc(-c3ccc(F)cc3)cn12 (stereo unspecified) | 648 nM | 3790 nM | 10400 nM | 1190 nM | 4140 nM | 1080 nM | 1130 nM | 98%
COc1ccc(NC(=O)C2c3ccccc3C(=O)N(CC(C)C)C2c2cccs2)cc1 (stereo unspecified) | 36.7 nM | 16100 nM | > 32000 nM | 4320 nM | > 32000 nM | > 32000 nM | 73.9 nM | 100%
